Data from patent US7767194B2, “Optical diagnostic and therapeutic agents and compositions” (Mallinckrodt Inc., priority 2000, dated 2010).

Legend:
[1] = tested on: Rat pancreatic acinar carcinoma expressing the SST-2 receptor (CA20948); experiment: Non-invasive in vivo fluorescence imaging of rat pancreatic acinar carcinoma (CA20948)
Text: (§1) A non-invasive in vivo fluorescence imaging apparatus was employed to assess the efficacy of contrast agents developed for tumor detection in animal models. A LaserMax Inc. laser diode of nominal wavelength 780 nm and nominal power of 40 mW was used. The detector was a Princeton Instruments model RTE/CCD-1317-K/2 CCD camera with a Rodenstock 10 mm F2 lens (stock #542.032.002.20) attached. An 830 nm interference […] (CVI Laser Corp., part # F10-830-4-2) was mounted in front of the CCD input lens such that only emitted fluorescent light from the contrast agent was imaged. Typically, an image of the animal was taken pre-injection of contrast agent. This image was subsequently subtracted (pixel by pixel) from the post injection images. However, the background subtraction was […] done once the animal had been removed from the sample area and returned at a later time for images taken several hours post injection.
DSL 6A tumors were induced in male Lewis rats in the left flank area by the introduction of material from a solid (donor) implant and the tumors were palpable in approximately 14 days. The animals were anesthetized with xylazine; ketamine; acepromazine 1.5:1.5:0.5 at 0.8 mL/kg via intramuscular injection. The area of the tumor (left flank) was shaved to expose tumor and surrounding surface area. A 21 gauge butterfly equipped with a stopcock and two syringes containing heparinized saline was placed into the later tail vein of the rat. Patency of the vein was checked prior to administration of the ICG via the butterfly apparatus. Each animal received […] of a 0.42 mg/mL solution of ICG in water.
The imaging apparatus and the procedure used are described in Example 12. Rat pancreatic acinar carcinoma expressing the SST-2 receptor (CA20948) was induced by solid implant technique in the left flank area, and palpable masses were detected nine days post implant. The images obtained at 2 and 30 minutes post injection are shown in FIG. 7E-F. FIGS. 7E-F are images of a rat with an induced pancreatic acinar carcinoma (CA20948) expressing the SST-2 receptor imaged at two minutes (FIG. 7E) and 30 minutes (FIG. 7F) post injection.
The imaging apparatus and the procedure used are described in Example 12 except that each animal received 500 μl of a 1.0 mg/mL solution of Cytate 1 solution of 25% dimethylsulfoxide in water.
Rat pancreatic acinar carcinoma expressing the SST-2 receptor (CA20948) were induced by solid implant technique in the left flank area, and palpable masses were detected 24 days post implant. Images were obtained at various times post injection.
Cytate 1 was evaluated in the CA20948 Lewis rat model. […] At 27 hours post injection, the animal was again imaged (FIG. 9B).

[2] = Monitoring of the blood clearance profile of peptide-dye conjugates; assay type: in vivo; conditions: rat ear, bolus injection in lateral tail vein, 830 nm after excitation at 780 nm
Text: A laser of appropriate wavelength for excitation of the dye chromophore was directed into one end of a fiber optic bundle and the other end was positioned a few millimeters from the ear of a rat. A second fiber optic bundle was also positioned near the same ear to detect the emitted fluorescent light and the other end was directed into the optics and electronics for data collection. An interference filter (IF) in the collection optics train was used to select emitted fluorescent light of the appropriate wavelength for the dye chromophore.
After the animals had achieved the desired plane of anesthesia, a 21 gauge butterfly with 12″ tubing was placed in the lateral tail vein of each animal and flushed with heparinized saline. The animals were placed onto a heating pad and kept warm throughout the entire study. The lobe of the left ear was affixed to a glass microscope slide to reduce movement and vibration.
Incident laser light delivered from the fiber optic was centered on the affixed ear. Data acquisition was then initiated, and a background reading of fluorescence was obtained prior to administration of the test agent. […] This procedure was repeated with several dye-peptide conjugates in normal and tumor bearing rats. […] The data were analyzed using a standard sigma plot software program for a one compartment model.

[3] = Imaging of individual organs removed from CA20948 tumor-bearing rat; assay type: in vivo
Description: Individual organs were removed at about 24 hours post Cytate 1 administration and imaged.

[4] = tested on: Prostatic carcinoma tumor (Dunning R3327-H); experiment: Non-invasive in vivo fluorescence imaging of prostatic carcinoma (R3327-H); parameters: species or system rat
DSL 6A tumors = experiment: Non-invasive in vivo fluorescence imaging of pancreatic ductal adenocarcinoma (DSL 6A); parameters: species or system rat
Text: as §1
DSL 6A tumors were induced in male Lewis rats in the left flank area by the introduction of material from a solid (donor) implant and the tumors were palpable in approximately 14 days. The animals were anesthetized with xylazine; ketamine; acepromazine 1.5:1.5:0.5 at 0.8 mL/kg via intramuscular injection. The area of the tumor (left flank) was shaved to expose tumor and surrounding surface area. […]

[5] = CA20948 tumor, 45 minutes post injection
[6] = organ removed about 24 hours post administration
[7] = tissue removed about 24 hours post administration

SMILES | localization of dye in the tumor ([1]; CA20948 Lewis rat model, 45 minutes post injection) | tumor visualization ([1]; CA20948 Lewis rat model, 27 hours post injection) | time course of uptake into the tumor ([1]; CA20948 tumor, 500 μl of 1.0 mg/mL in 25% dimethylsulfoxide in water) | uptake (dye fluorescence) in tumor at 45 minutes [1, 5] | persistence of dye fluorescence in the tumor ([1]; CA20948 tumor, post-injection) | fluorescence signal in blood after injection (rise) [2] | fluorescence signal in blood over time (clearance) [2] | uptake in adrenals [3, 6] | uptake in heart [3, 6] | uptake in liver [3, 6] | uptake in pancreas [3, 6] | uptake in spleen [3, 6] | uptake in muscle [3, 7] | uptake in tumor tissue [3, 7] | perfusion of the agent into the tumor ([4]; Dunning R3327H (prostate) tumor line, CCD camera) | dye intensity in the tumor ([4]; R3327-H tumor, Copenhagen rats, 30 minutes post-ICG injection (vs two minutes)) | perfusion of the agent into the tumor (DSL 6A tumors; DSL 6/A (pancreatic) tumor line, CCD camera) | dye intensity in the tumor (DSL 6A tumors; DSL 6A tumor, male Lewis rats, 30 minutes post-ICG injection (vs two minutes), tail vein bolus 0.5 ml aqueous solution) | perfusion of the agent into the tumor ([1]; CA20948 (pancreatic) tumor line, CCD camera) | dye intensity in the tumor ([1]; CA20948 tumor, 30 minutes post-ICG injection (vs two minutes))
C[C@@H](O)[C@H](NC(=O)[C@@H]1CSSC[C@H](NC(=O)[C@@H](Cc2ccccc2)NC(=O)CCN2C(=CC=CC=CC=CC3=[N+](CCC(=O)O)c4ccc5ccccc5c4C3(C)C)C(C)(C)c3c2ccc2ccccc32)C(=O)N[C@@H](Cc2ccc(O)cc2)C(=O)N[C@H](Cc2c[nH]c3ccccc23)C(=O)N[C@@H](CCCCN)C(=O)N[C@@H]([C@@H](C)O)C(=O)N1)C(=O)O [Cytate 1, monoOctreotate-Bismethylcarboxymethylindocyanine dye] | localization of this dye was observed in the tumor | easily observed | seen at two minutes but was not maximal until about five minutes | still quite intense | remained intense in the tumor for several hours | rapidly increased to a peak value | decayed as a function of time | high uptake | significantly lower uptake | significantly lower uptake | high uptake | significantly lower uptake | significantly lower uptake | high uptake | – | – | – | – | – | –
C[C@@H](O)[C@H](NC(=O)[C@@H]1CSSC[C@H](NC(=O)[C@@H](Cc2ccccc2)NC(=O)CCN2C(=CC=CC=CC=CC3=[N+](CCC(=O)N[C@H](Cc4ccccc4)C(=O)N[C@H]4CSSC[C@@H](C(=O)N[C@H](C(=O)O)[C@@H](C)O)NC(=O)[C@H]([C@@H](C)O)NC(=O)[C@H](CCCCN)NC(=O)[C@@H](Cc5c[nH]c6ccccc56)NC(=O)[C@H](Cc5ccc(O)cc5)NC4=O)c4ccc5ccccc5c4C3(C)C)C(C)(C)c3c2ccc2ccccc32)C(=O)N[C@@H](Cc2ccc(O)cc2)C(=O)N[C@H](Cc2c[nH]c3ccccc23)C(=O)N[C@@H](CCCCN)C(=O)N[C@@H]([C@@H](C)O)C(=O)N1)C(=O)O [Cytate 2, bisOctreotate-Bismethylcarboxymethylindocyanine dye] | – | – | – | – | – | rapidly increased to a peak value | decayed as a function of time | – | – | – | – | – | – | – | – | – | – | – | – | –
CC1(C)C(/C=C/C=C/C=C/C=C2\N(CCCCS(=O)(=O)O)c3ccc4ccccc4c3C2(C)C)=[N+](CCCCS(=O)(=O)[O-])c2ccc3ccccc3c21 [ICG, indocyanine green] | – | – | – | mostly cleared | – | – | – | – | – | – | – | – | – | – | slow perfusion of the agent over time into the tumor | considerably diminished | slow perfusion of the agent over time into the tumor | considerably diminished | only a slight but transient perfusion that was absent after only 30 minutes post injection | considerably diminished and almost absent
